The subject of one data set is endogenous XlPin1. As to the kind of experiment: Immunofluorescence of microinjected X. laevis embryos. It counts as in vivo. The conditions noted are these: stage 8. On the procedure:
FIG. 11 depicts the colocalization of peptide 16 and endogenous XlPin1 in X. laevis embryos. 100 pmol and 250 pmol of peptide 16 dissolved in 10 nl PBS buffer were injected in X. laevis embryos at stage 2 of development. In a control experiment, 10 nl of the pure PBS buffer were injected. Embryos were fixed at stage 8, embedded and cryosectioned. Peptide 16 is stained in green using the Oregon Green™ 488-labeled NeutrAvidin biotin-binding protein. Endogenous XlPin1 is stained in red using a monoclonal anti hPin1 antibody (mAb hPin1) from mouse and an Alexa Fluor 546™-conjugated secondary antibody. Overlapping patterns are shown in yellow in the merged images. Nuclei are stained with DAPI.
Microinjection was done into the animal half of X. laevis embryos at stage 2 of development. In every case, the injection volume was 10 nl. Immunofluorescence studies of frozen X. laevis embryo sections were performed as previously described (Julius et al., 2000). Ten-micrometer cryosections of stage 8 embryos were labelled using a monoclonal anti hPin1 antibody (mouse) followed by incubation with Alexa Fluor 546™-conjugated anti mouse antibody of goat serum (Molecular Probes). […] Samples were analyzed using an Axioplan epifluorescence microscope with fluorescein and Cy3 selective filter sets. […]

In another data set the test system is X. laevis embryos. As to the kind of experiment: Microinjection in X. laevis embryos, cell division. The class given is in vivo. The following applies: microinjection at stage 2. On the procedure: FIG. 8 depicts the blocking of cell division by the injection of peptide 17 in X. laevis embryos. 50-300 pmol of peptide 17 or 300 pmol of its nonphosphorylated derivative (control) dissolved in 10 nl PBS buffer were microinjected in the animal half of X. laevis embryos at stage 2 of development. Embryos with large and/or apoptotic appearing cells surrounded by normally developing cells were counted after further 5 hours (stage 8-9) of development. […] Each value is the average of four independent experiments.
FIGS. 9A-F depicts phenotypic analysis of X. laevis embryos after injection of peptide 17. 300 pmol of peptide 17 or its nonphosphorylated derivative dissolved in 10 nl PBS buffer were injected in the animal half of X. laevis embryos at stage 2 of development. 1.5 hour at stage 6 (A), 2.5 hours at stage 7 (B) and 4-5 hours at stage 8-9 (C, D) after injection enlarged cells became visible. Cells that are blocked in cell division are marked with a white arrow. Controls of uninjected embryos of stage 8-9 and embryos that were injected with 300 pmol of the nonphosphorylated derivative of peptide 17 are shown in panels E and F. The site where the nonphosphorylated derivative of peptide 17 was injected is marked with a white arrow (F).
FIGS. 10A-D depict the rescue of peptide 17 caused cell division block in X. laevis embryos by hPin1 (A, B) and different hPin1 variants (C, D). FIG. 10A depicts the time course of V5-tagged hPin1 expression was analyzed by preparation of X. laevis embryo lysate 1, 2 and 4 hours after injection of 1, 2 or 3 ng of V5-tagged hPin1 mRNA. In every case, the injected volume was 10 nl. Lysates were prepared in lysis buffer containing phosphatase and protease inhibitors. Samples were separated by SDS PAGE followed by western blotting. Endogenous XlPin1 and V5-tagged hPin1 were detected using an anti hPin1 PPIase domain antiserum as primary antibody followed by incubation with a horseradish peroxidase-conjugated secondary antibody. Visualization was done using the SuperSignal® substrate. […] In every case, the whole volume of injection was 10 nl. The indicated amount of the mRNA was injected in the animal half of 30 embryos at stage 2 of development. Embryos with large and/or apoptotic appearing cells surrounded by normally developed cells were counted after additional 5 hours of development (stage 8-9). […] Each percentage of vital embryos shown in the figure is the average of four independent experiments. FIG. 10C indicates the expression of V5-tagged hPin1 variants was evaluated by preparation of embryo lysate after 4 hours of injection of the respective mRNA (2 ng) in X. laevis embryos. Lysates were prepared in lysis buffer containing phosphatase and protease inhibitors. Samples were separated using SDS PAGE followed by western blot analysis. Endogenous XlPin1 and injected V5-tagged hPin1 variants were detected using an anti hPin1 PPIase domain antiserum as primary antibody and a horseradish peroxidase-conjugated secondary antibody. Visualization was done by a chemiluminescent reaction using the SuperSignal® substrate (Pierce). FIG. 10D depicts 250 pmol of peptide 17 was coinjected with 2 ng mRNA of the indicated V5-tagged hPin1 variant (whole volume 10 nl) in the animal half of 30 X. laevis embryos at stage 2 of development. Results were analyzed as described for FIG. 10B. Each percentage of vital embryos shown in the figure is the average of four independent experiments.
Microinjection was done into the animal half of X. laevis embryos at stage 2 of development. In every case, the injection volume was 10 nl. Immunofluorescence studies of frozen X. laevis embryo sections were performed as previously described (Julius et al., 2000). Ten-micrometer cryosections of stage 8 embryos were labelled using a monoclonal anti hPin1 antibody (mouse) followed by incubation with Alexa Fluor 546™-conjugated anti mouse antibody of goat serum (Molecular Probes). […]

A further data set concerns the target T1, authentic hPin1 (Homo sapiens, UniProt Q13526).
T1 construct: endogenous in cells; host or cells: HeLa cell lysate
The data set is described as follows: Pull down assay, HeLa cell lysate. It counts as binding. The following applies: streptavidin sepharose. The procedure:
(§1) FIGS. 5A-B depict pull down assays showing peptide 16 binds to authentic XlPin1 (A) and hPin1 from HeLa cells (B). FIG. 5A depicts the indicated concentrations of peptide 16 were incubated with X. laevis embryo extract in the absence of phosphatase inhibitors. Peptide 16/XlPin1-complex was then extracted from the respective mixture using streptavidin sepharose. Samples were analyzed regarding coextracted XlPin1 by SDS PAGE followed by western blot analysis. Untreated lysate (input) was loaded as a control. Authentic XlPin1 was detected using an anti hPin1 PPIase domain antiserum followed by incubation with a horseradish peroxidase-conjugated secondary antibody. Visualization was done using the SuperSignal® substrate. FIG. 5B indicates concentrations of peptide 16 were incubated with HeLa cell lysate in the absence of phosphatase inhibitors. The peptide 16/hPin1-complex was then precipitated from the respective mixture using streptavidin sepharose and isolated from the supernatant. Extracted proteins and the supernatants were then analyzed by SDS PAGE. […] After western blotting, hPin1 was detected using an anti hPin1 PPIase domain antiserum as primary antibody and a horseradish peroxidase-conjugated secondary antibody. […]
(§2) Peptide 16 (see Table III) was incubated with HeLa cell or X. laevis embryo lysate for 1 hour at 4° C. […] The samples were then heated to 95° C. and analyzed by SDS PAGE. […]

For another data set, the system named is authentic XlPin1. The data set is described as follows: Pull down assay, X. laevis embryo lysate. The class given is binding. The following applies: no phosphatase inhibitors, streptavidin sepharose. On the procedure: as §1, §2
The nature of data set [1]: Stability against cellular phosphatases and proteases in HeLa cell lysate. The class given is in vitro ADME. The conditions noted are these: discussion statement (FIG. 4). The procedure:
FIG. 4 depicts the stability of peptide 17 against cellular phosphatases and proteases. Peptide 17 was incubated for 3 hours in HeLa cell lysate in the absence of phosphatase and protease inhibitors. The mixture was then analyzed by capillary electrophoresis (short dashed line). As controls, the untreated peptide 17 (solid line) and its nonphosphorylated derivative (dotted line) were used. The temperature of the capillary thermostating system was kept at 16° C. Separation buffer was 50 mM sodium phosphate, pH 7.0. Signals were detected at 220 nm.
Peptide 17 was incubated with HeLa cell lysate for 3 h and analyzed with capillary electrophoresis using UV detection at 220 nm on a P/ACE MDQ (Beckman Coulter, Palo Alto, Calif.) system. Fused-silica capillaries (Polymicro Technologies) of 40 cm length at an operation voltage of 20 kV were used. As references, untreated peptide 17 and its nonphosphorylated derivative were used. The samples were hydrodynamically injected with 3.45 kPa for 10 s. 50 mM sodium phosphate buffer (pH 7.0) was used as separation buffer. The system temperature was kept at 16° C.
The stability of peptides 15 and 17 in cytoplasmic extracts from HeLa cells was investigated using MALDI-TOF mass spectrometry and capillary electrophoresis, respectively. In the cytosolic incubation mixture, streptavidin sepharose beads served to isolate peptide 15 fragments after prolonged incubation. […] Therefore, phosphopeptides are useless for evaluating Pin1 functions in vivo unless dephosphorylation can be avoided.

Experimental findings from patent US8258099B2, “Pin1-modulating compounds and methods of use thereof” (Max-Planck-Gesellschaft zur Foerderung der Wissenschaften …, priority 2004, dated 2012) are described below.

Square brackets hold non-standard residues; d marks the D form. Peptide text beside a SMILES is read from it. * marks the point of attachment. Biotin = O=C1N[C@H]2[C@H](CS[C@H]2CCCCC(=O)*)N1; d(pT) = C[C@H](OP(=O)(O)O)[C@@H](N)C(=O)O; 2Nal = N[C@@H](Cc1ccc2ccccc2c1)C(=O)O; Bta = N[C@@H](Cc1csc2ccccc12)C(=O)O; Pip = O=C(O)[C@@H]1CCCCN1

T1 sequence (Q13526 whole entry): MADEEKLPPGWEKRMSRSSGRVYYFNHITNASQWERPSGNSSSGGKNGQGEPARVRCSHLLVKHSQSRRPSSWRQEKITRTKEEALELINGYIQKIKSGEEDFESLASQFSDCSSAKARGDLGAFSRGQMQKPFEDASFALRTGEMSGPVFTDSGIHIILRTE

Consider `CC(=O)N[C@@H](CCCCNC(=O)CCCC[C@@H]1SC[C@@H]2NC(=O)N[C@@H]21)C(=O)N[C@@H](C)C(=O)N[C@@H](C)C(=O)N[C@@H](Cc1csc2ccccc12)C(=O)N[C@@H](C(=O)N1CCCC[C@H]1C(=O)N[C@@H](Cc1ccc2ccccc2c1)C(=O)N[C@@H](CCC(N)=O)C(N)=O)[C@H](C)OP(=O)(O)O` [Peptide 16, Ac-Lys(N^ε-biotinoyl)-Ala-Ala-Bth-D-Thr(PO3H2)-Pip-Nal-Gln-NH2] (Ac-K(Biotin)AA[Bta][d(pT)][Pip][2Nal]Q-NH2), for which, in the data set on endogenous XlPin1 (100 pmol injected), the “colocalization with XlPin1” value is “clear nuclear colocalization”. In the data set on endogenous XlPin1 (250 pmol injected), the “effect on embryonic tissue” value is on record as “distortions of the embryonic tissue”. Further, in the data set with X. laevis embryos, the “effect on development of the embryos” value is “cell cycle blockage and embryonic death”. Besides, at authentic hPin1, the “pull down of authentic hPin1” value is given as “pulled down”. Besides, the “coprecipitation of authentic XlPin1” value with authentic XlPin1 is reported as “coprecipitated with peptide 16 in a dose-dependent manner”. Also, in data set [1], the stability in cytosol result is “sufficiently stable”.
